Experimental data: patent US9605064B2, “Methods and compositions for treatment of skin disorders” (AbbVie Biotechnology Ltd, priority 2006, dated 2017)

How the values were obtained:
[1] = test system: patients with chronic plaque psoriasis; assay: Safety, 16-week open-label Phase IIIb trial after suboptimal response to ETN, MTX or NB-UVB
Source text: This 16-week, multicenter, open-label, Phase IIIb trial enrolled patients with chronic plaque psoriasis who were having a suboptimal response to ETN (Physician's Global Assessment [PGA]≧mild with months of therapy, or ≧3 months of therapy and deterioration of efficacy), MTX (PGA≧mild with ≧4 months of therapy), or narrow-band ultraviolet B (NB-UVB) phototherapy (PGA moderate with months of therapy). […] The primary endpoint was the proportion of patients who achieved PGA of clear or minimal at week 16. A secondary endpoint was the proportion achieving ≧1 grade of PGA improvement. Safety was assessed throughout the study. Efficacy analyses were intention to treat, with nonresponder imputation used for missing data. Efficacy and safety results were analyzed overall and for each prior-treatment group.

C-reactive protein (CRP) = assay: C-reactive protein concentrations, post-hoc analysis of REVEAL; format: in vivo, human; settings: for mean change from baseline in CRP: 16 wks
Procedure: Changes in CRP concentrations were also evaluated in subgroups with or without self-reported psoriatic arthritis (PsA) and with or without obesity (by body mass index [BMI]).

Adalimumab: a human anti-TNF mAb, described in U.S. Pat. No. 6,090,382 as D2E7 (HUMIRA, Abbott Laboratories)
malignancies ([1]; 16-week trial): no malignancies were reported
patients with >25% worsening in PASI scores ([1]; all patients (2 MTX, 2 ETN)): 2.6%
mean change from baseline in CRP (C-reactive protein (CRP); Ps group (without self-reported PsA)): −1.3
patients with elevated CRP at baseline who had a normal CRP (C-reactive protein (CRP); Ps group, Wk 16): 64.6%
mean change from baseline in CRP (C-reactive protein (CRP); PsA group): −6.3
patients with elevated CRP at baseline who had a normal CRP (C-reactive protein (CRP); PsA group, Week 16): 71.9%
patients changed from elevated CRP at baseline to a normal CRP (C-reactive protein (CRP); obese patients, Week 16): 64.1%
